Reference: PubChem BioAssay AID1508612

Experiment: passive permeability, PAMPA, ADME assay (AID 1508612)
Settings: pH 7.4, 30.0 min, 50.0 µM

| Structure (SMILES) | Papp |
| --- | --- |
| Cc1cc(NS(=O)(=O)c2ccc(C(=O)NCc3ccc(Cl)c(Cl)c3)cc2)no1 | 46.2 ×10⁻⁶ cm/s |
| Cc1ccc(S(=O)(=O)Nc2ccc(C(=O)Nc3nc(-c4ccccc4)cs3)cc2Cl)cc1 | 23.9 ×10⁻⁶ cm/s |
| CNc1sc(-c2cccc3ccccc23)nc1C#N | 716 ×10⁻⁶ cm/s |
| COc1cc2nccc(Oc3ccc(NC(=O)Nc4cc(C)on4)c(Cl)c3)c2cc1OC | 328 ×10⁻⁶ cm/s |
| COc1cc(-c2nc(Nc3ccc(F)c(F)c3)c3ccccc3n2)cc(OC)n1 | 26.5 ×10⁻⁶ cm/s |
| O=C(NCc1ccc(S(=O)(=O)c2cccc(C(F)(F)F)c2)cc1)c1cnc2[nH]ncc2c1 | 797 ×10⁻⁶ cm/s |
| CC(=O)N1CCc2c(sc3c2c(=O)n(-c2ccccc2)c(=O)n3CC(=O)c2ccccc2)C1 | 714 ×10⁻⁶ cm/s |
| O=C(Nc1nc(-c2ccccc2)cs1)c1ccncc1NS(=O)(=O)c1c(F)cc(F)cc1F | 459 ×10⁻⁶ cm/s |
| CCc1ccc(NC(=O)c2[nH]c(C)c(C(C)=O)c2C)cc1[S+](=O)([O-])Nc1ccccc1C#N | 74.2 ×10⁻⁶ cm/s |
| CCn1c(-c2nonc2N)nc2cnc(Oc3cccc(NC(=O)c4ccc(OCCN5CCOCC5)cc4)c3)cc21 | < 1 ×10⁻⁶ cm/s |
| CC(C)(C)c1ccc(S(=O)(=O)c2cnc(SCC(=O)Nc3ccc(F)c(Cl)c3)[nH]c2=O)cc1 | 6.49 ×10⁻⁶ cm/s |
| COCCn1ccc2c(C3=CCOCC3)nc(-c3ccc4c(c3)CNC4=O)cc21 | 71.7 ×10⁻⁶ cm/s |
| Cc1cccc(S(=O)(=O)c2cn(Cc3ccccc3)c3cc(N4CCCC(C)C4)c(F)cc3c2=O)c1 (stereo not drawn) | > 1000 ×10⁻⁶ cm/s |
| COc1ccc(NC(=O)c2[nH]c(C)c(C(C)=O)c2C)cc1S(=O)(=O)N1CCCCCC1 | 989 ×10⁻⁶ cm/s |
| CN1C(=O)c2ccccc2[S@](=O)c2ccc(C(=O)NCCN3CCCC3)cc21 | 94.2 ×10⁻⁶ cm/s |
| Oc1ccc(CNc2cccc(F)c2)c2cccnc12 | < 1 ×10⁻⁶ cm/s |
| CCOc1ccc(CCNC(=O)c2cc3ccccc3n2Cc2ccccn2)cc1OCC | > 1000 ×10⁻⁶ cm/s |
| O=C(Nc1nc(-c2ccccc2)cs1)c1ccncc1NS(=O)(=O)c1ccc(-c2ccccc2)cc1 | < 1 ×10⁻⁶ cm/s |
| CCN1CCN(c2ccc3cc(S(=O)(=O)N4CCOCC4)ccc3n2)CC1 | > 1000 ×10⁻⁶ cm/s |
| COC(=O)CNC(=O)c1nc(-c2ccc(Cl)nc2)c2ccccn12 | > 1000 ×10⁻⁶ cm/s |
| N#Cc1cnc(NS(=O)(=O)c2ccc(NC(=O)Cc3ccc(F)c(Cl)c3)cc2)s1 | < 1 ×10⁻⁶ cm/s |
| Cc1ccc(CNc2ccccc2C(=O)Nc2nc(-c3ccccc3)cs2)cc1 | 26.4 ×10⁻⁶ cm/s |

| Structure (SMILES) | Papp |
| --- | --- |
| O=C1NC(=O)C(c2cnc3ccccn23)=C1c1cn2c3c(cccc13)CN(C(=O)N1CCOCC1)CC2 | 82.9 ×10⁻⁶ cm/s |
| COc1ccc(NC(C)=O)cc1S(=O)(=O)Nc1ccc(Br)cc1 | 627 ×10⁻⁶ cm/s |
| CCOc1ccc(CCNC(=O)c2cc3sccc3n2Cc2ccc(-n3cncn3)cc2)cc1OCC | > 1000 ×10⁻⁶ cm/s |
| COc1ccc(-n2nc(C3CCN(C(=O)C4CC4)CC3)[nH]c2=O)cc1 | 148 ×10⁻⁶ cm/s |
| Nc1ncnc(N2CCc3ccccc32)c1[N+](=O)[O-] | 295 ×10⁻⁶ cm/s |
| Cc1ccc(-c2nn(C(C)(C)C)c3ncnc(N)c23)cc1 | 825 ×10⁻⁶ cm/s |
| Cc1cn2c(N)c(Cl)cc(C(=O)NCC3CCN(CC(C)C)CC3)c2n1 | 606 ×10⁻⁶ cm/s |
| COc1ccc(-c2cc(-c3cccc4[nH]ncc34)cn3cncc23)cn1 | < 1 ×10⁻⁶ cm/s |
| COc1ccc2c(c1)/C(=C/c1cnc[nH]1)C(=O)N2 | 220 ×10⁻⁶ cm/s |
| Cc1ccc(S(=O)(=O)c2cnc(SC(C)C(=O)Nc3ccccc3)[nH]c2=O)cc1 (stereo not drawn) | 1.2 ×10⁻⁶ cm/s |
| COc1cc(C(=O)NC2CCCc3c2[nH]c2ccccc32)cc(OC)c1OC (stereo not drawn) | 189 ×10⁻⁶ cm/s |
| O=C1CCCC2=C1C(c1[nH]ncc1Cl)N=C(Nc1nc3cc([S+](=O)([O-])N4CCCC4)ccc3o1)N2 (stereo not drawn) | 47 ×10⁻⁶ cm/s |
| CC(=O)c1cccc(-c2csc3ncnc(Sc4nnnn4C)c23)c1 | 239 ×10⁻⁶ cm/s |
| CCc1ccc(-n2nc(C)c3c2NC(=O)CSC3c2ccccc2C)cc1 (stereo not drawn) | 707 ×10⁻⁶ cm/s |
| Cc1cc(C)nc(NC(=S)N2CCN(c3ccc4nsnc4c3)CC2)c1 | 707 ×10⁻⁶ cm/s |
| O=C1CCCC2=C1C(c1[nH]ncc1Cl)N=C(Nc1nc3c(Br)cccc3o1)N2 (stereo not drawn) | 531 ×10⁻⁶ cm/s |
| O=C(Nc1nc(-c2ccccc2)cs1)c1ccncc1NS(=O)(=O)c1ccc(Cl)cc1 | 294 ×10⁻⁶ cm/s |
| COc1ccc(CN2CCN(C(=O)c3cc4c(s3)CCC4)CC2)cc1 | 997 ×10⁻⁶ cm/s |
| CN(C)c1cccc(-c2cnc(N3CCC(c4ncc[nH]4)CC3)s2)c1 | 955 ×10⁻⁶ cm/s |
| C=C1c2cccc(O)c2C(O)=C2C(=O)[C@]3(O)C(O)=C(C(N)=O)C(=O)[C@@H](N(C)C)[C@@H]3[C@@H](O)[C@H]12 | < 1 ×10⁻⁶ cm/s |
| Cc1cccc(-n2nc(C)c3c2NC(=O)CSC3c2ccccc2Cl)c1 (stereo not drawn) | > 1000 ×10⁻⁶ cm/s |
| CCOC(=O)C1CCN(C(=O)C2(NC(=O)Nc3ccccc3Cl)CCC2)CC1 | 266 ×10⁻⁶ cm/s |

| Structure (SMILES) | Papp |
| --- | --- |
| CCOc1ccccc1C(=O)Nc1cccnc1C(=O)Nc1cccc(S(=O)(=O)C(F)(F)F)c1 | 8.1 ×10⁻⁶ cm/s |
| Cc1ccccc1C(=O)Nc1ccc2c(c1)CCCN2C(=O)c1cccs1 | 687 ×10⁻⁶ cm/s |
| CC(C)(C)c1cc(NC(=O)Nc2ccc(-c3cn4c(n3)sc3cc(OCCN5CCOCC5)ccc34)cc2)no1 | < 1 ×10⁻⁶ cm/s |
| Fc1cc(-c2nc(Nc3ccc(F)c(F)c3)c3ccccc3n2)ccn1 | 116 ×10⁻⁶ cm/s |
| Cc1ccc(S(=O)(=O)Nc2cnccc2C(=O)Nc2nc(-c3cnn(C)c3)cs2)cc1 | 54.9 ×10⁻⁶ cm/s |
| c1ccc(-c2nnc3n2NC(c2ccc4c(c2)OCO4)S3)cc1 (stereo not drawn) | 607 ×10⁻⁶ cm/s |
| CN1CCc2cc3c(cc2C1)OCO3 | 316 ×10⁻⁶ cm/s |
| CCOc1ccc(N2CC(c3nc(-c4ccccn4)no3)CC2=O)cc1 (stereo not drawn) | 297 ×10⁻⁶ cm/s |
| Cc1c(-c2cccc(NC(=O)c3ccc(F)c(F)c3)c2)nc2ncccn12 | 908 ×10⁻⁶ cm/s |
| CCc1ccc(OC(C)C(=O)N2CCC(c3nc4ccccc4o3)CC2)cc1 (stereo not drawn) | > 1000 ×10⁻⁶ cm/s |
| Cc1ccccc1C(=O)N1CCc2cc(-c3nc(NC(=O)Cc4ccc5c(c4)OCO5)sc3C)ccc21 | 23.9 ×10⁻⁶ cm/s |
| COC(=O)CNC(=O)c1nc(-c2ccc([S+](C)(=O)[O-])cc2)c2cnccn12 | 9.67 ×10⁻⁶ cm/s |
| CCOC(=O)NNc1ccc(N(CC)CC(C)O)nn1 (stereo not drawn) | 10.7 ×10⁻⁶ cm/s |
| CCN(CC)C(=O)c1coc(COc2ccc3c(c2)C(c2cccc(F)c2)N(C(=O)C(C)C)CC3)n1 (stereo not drawn) | > 1000 ×10⁻⁶ cm/s |
| CN1CCCN(C(c2ccccc2)c2ccc(Cl)cc2)CC1 (stereo not drawn) | 652 ×10⁻⁶ cm/s |
| CCCCOc1ccc(CC(=O)NO)cc1 | 133 ×10⁻⁶ cm/s |
| NC(=O)C1CCN(c2nccc(-c3ccc4c(c3)OCCCO4)n2)CC1 | 653 ×10⁻⁶ cm/s |
| Cc1ccc(-c2cc(C(=O)Nc3ccc(S(=O)(=O)Nc4ccc(C#N)cc4)cc3)c3ccccc3n2)cc1C | < 1 ×10⁻⁶ cm/s |
| C=Cc1ccc(Cn2c(C(=O)O)c(CNCc3ccccc3)c3ccc(OC)cc32)cc1 | 900 ×10⁻⁶ cm/s |
| CCOc1ccc(CCNC(=O)c2cc3ccccc3n2Cc2cccc(C)n2)cc1OCC | > 1000 ×10⁻⁶ cm/s |
| CCOc1ccc(CCNC(=O)c2ccnn2Cc2cccc(C)c2)cc1OCC | > 1000 ×10⁻⁶ cm/s |
| Cc1ccc(-n2c(C)cc(C3=NNC(=NC4CC4)SC3)c2C)cc1C | > 1000 ×10⁻⁶ cm/s |

| Structure (SMILES) | Papp |
| --- | --- |
| Fc1cc(Nc2nc(-c3ccncc3)nc3ccccc23)ccc1OC(F)(F)F | 552 ×10⁻⁶ cm/s |
| COC(=O)CNC(=O)c1nc(-c2ccccc2OC)c2ccccn12 | > 1000 ×10⁻⁶ cm/s |
| O=C(Nc1ccccc1C(=O)Nc1ccccc1C(=O)NCc1ccco1)c1ccco1 | > 1000 ×10⁻⁶ cm/s |
| Cc1ccc(S(=O)(=O)Nc2ccccc2C(=O)Nc2ncc(-c3ccccc3)o2)cc1 | 303 ×10⁻⁶ cm/s |
| Cc1ccc(S(=O)(=O)Nc2cnccc2C(=O)NCCc2ccccc2)cc1 | 20.3 ×10⁻⁶ cm/s |
| Cc1cc(NC(=S)N2CCN(c3cccc(C(F)(F)F)c3)CC2)nc2ccccc12 | 31.5 ×10⁻⁶ cm/s |
| CS(=O)(=O)c1ccc2nc(NC(=O)C3CC3)sc2c1 | 106 ×10⁻⁶ cm/s |
| Cc1cnc(N2CCC(C(N)=O)CC2)nc1-c1cccc(N(C)C)c1 | 666 ×10⁻⁶ cm/s |
| C=Cc1ccc(Cn2c(C(=O)O)c(CNC3CCCCC3)c3ccc(OC)cc32)cc1 | 771 ×10⁻⁶ cm/s |
| Cc1ccc(CSCc2ccc(C(=O)NC3CC3)o2)cc1 | 833 ×10⁻⁶ cm/s |
| Cn1cc(S(=O)(=O)N2CCCCCC2)cc1C(=O)Nc1ccc(Cl)c(C(F)(F)F)c1 | 305 ×10⁻⁶ cm/s |
| O=C(O)c1ccc(Nc2nc(-c3cc4ccccc4oc3=O)cs2)cc1O | 8.62 ×10⁻⁶ cm/s |
| CCOC(=O)c1ccc(NC(=O)N2Cc3[nH]cnc3C[C@H]2c2nc(C(C)C)no2)cc1 | 113 ×10⁻⁶ cm/s |
| COc1ccnc(NC(=S)N2CCN(c3cccc(C(F)(F)F)n3)CC2)c1 | > 1000 ×10⁻⁶ cm/s |
| CN(C)c1cccc(-c2nnc(N3CCC(C(N)=O)CC3)s2)c1 | 119 ×10⁻⁶ cm/s |
| CN(C)CCOc1ccc(C(=C(CCCl)c2ccccc2)c2ccccc2)cc1 | < 1 ×10⁻⁶ cm/s |
| COC(=O)c1ccccc1C(=O)Nc1nc(-c2ccccc2)cs1 | 896 ×10⁻⁶ cm/s |
| COc1ccccc1-c1csc(N2CCC(C(N)=O)CC2)n1 | 693 ×10⁻⁶ cm/s |
| CCCCCCOc1ccc(OC(=O)c2ccncc2)cc1 | 600 ×10⁻⁶ cm/s |
| CNC1(c2ccccc2Cl)CCCCC1=O (stereo not drawn) | > 1000 ×10⁻⁶ cm/s |
| CC(C)(C)C(=O)N1CCN(c2nccc(Nc3ccccc3Cl)n2)CC1 | > 1000 ×10⁻⁶ cm/s |
| O=C1CCc2cc(S(=O)(=O)Nc3ccc(F)c(Cl)c3)ccc2N1 | 460 ×10⁻⁶ cm/s |

| Structure (SMILES) | Papp |
| --- | --- |
| Cc1ccccc1OCC(O)CO (stereo not drawn) | 44.4 ×10⁻⁶ cm/s |
| Fc1ccc(CNc2nc(-c3ccncc3)nc3ccccc23)cc1F | 569 ×10⁻⁶ cm/s |
| CC(C)COc1ccc(-c2ccc(=O)n(CC(=O)NCCc3ccccc3)n2)cc1 | > 1000 ×10⁻⁶ cm/s |
| Cc1ccc(S(=O)(=O)Nc2cnccc2C(=O)Nc2nc(-c3ccc(-c4ccccc4)cc3)cs2)cc1 | 5.92 ×10⁻⁶ cm/s |
| CCN(CC)C(=O)c1ccc2c(c1)ncn2-c1cccc(C)c1 | 889 ×10⁻⁶ cm/s |
| Cn1c(CN2CCCC2)nc2cc(NC(=O)COc3ccc(Cl)cc3)ccc21 | > 1000 ×10⁻⁶ cm/s |
| CCOc1ccc(N2C(=O)c3n[nH]c(-c4cccs4)c3C2c2cccc(F)c2)cc1 (stereo not drawn) | 82.4 ×10⁻⁶ cm/s |
| COc1ccccc1C(=O)Nc1nc2nc(C)cc(=O)n2[nH]1 | 7.8 ×10⁻⁶ cm/s |
| CC(=O)N[C@H]1CN(C2CCN(c3ccc(F)cc3C)CC2)C[C@@H]1C1CC1 | > 1000 ×10⁻⁶ cm/s |
| Cc1ccc(-n2ncc3c(NCCCn4ccnc4)ncnc32)cc1Cl | > 1000 ×10⁻⁶ cm/s |
| Cc1noc(C)c1C(=O)N1CCC2(CCCN(Cc3ccccc3)C2)CC1 | 449 ×10⁻⁶ cm/s |
| C=C1C(=O)OC2C1CCC(C)C1(O)C=CC(=O)C21C (stereo not drawn) | 64.6 ×10⁻⁶ cm/s |
| CCOc1ccccc1C(=O)NC1CCN(c2cc(C)cc(C)c2)C1=O (stereo not drawn) | > 1000 ×10⁻⁶ cm/s |
| Nc1nc(N)c2c(OCC3CCN(Cc4ccccc4F)CC3)cccc2n1 | 938 ×10⁻⁶ cm/s |
| O=C1Nc2cc(Cl)ccc2Nc2cscc21 | 478 ×10⁻⁶ cm/s |
| CCOC(=O)c1ccc(NC2CCCCC2)c(N)c1 | > 1000 ×10⁻⁶ cm/s |
| COc1ccc(-c2nc(N3CCOCC3)c3sc(CN(C)c4ncc(C(=O)NO)cn4)cc3n2)cn1 | 496 ×10⁻⁶ cm/s |
| COc1cc(N2CCC(N3CCN(C)CC3)CC2)ccc1Nc1ncc(Cl)c(Nc2ccccc2P(C)(C)=O)n1 | 266 ×10⁻⁶ cm/s |
| Cc1cc2c(C(N)=O)cccc2n1-c1nc2c(c(NCc3ccccc3)n1)COCC2 | 597 ×10⁻⁶ cm/s |
| COc1cc(Cl)cn2c(-c3cccc(NC4CNC4)n3)cnc12 | 6.1 ×10⁻⁶ cm/s |
